Laboratory results taken from EP0565593B1, “REDUCING PESTICIDAL INTERACTIONS IN CROPS” (priority 1990, dated 1992).

Experiments:
Velvetleaf (VELE) [1] = assay: Greenhouse test Procedure VII (same examples); type: in vivo, Abutilon theophrasti
Description: This procedure describes interaction among herbicide, biocide and antidote when the biocide and the antidote is applied to a soil furrow containing crop seed before emergence of the crop and the herbicide is applied after emergence of the crop and weeds. The soil and planting depth was described in Procedure IV. The containers for comparison, the biocide and antidote applications to soil furrows were described in Procedure VI. In this procedure, the seed beds of the first, second, third and fourth containers are covered by soil layers not treated with herbicide. The containers were then placed on a bench in a greenhouse and subirrigated as required for the duration of the test. The herbicide, dispersed or dissolved in water containing 0.25% v/v nonionic surfactant (X-77) was applied by a track sprayer (187 L/ha) to the emerged plants of the second, third and fourth containers about five days after planting. All treatments were run in duplicate. Plant response was observed according to Procedure IV. Variations in this procedure will be noted in the examples.
In this example, tests were conducted according to Procedure VII for the POE application of the herbicides following in-furrow application of COUNTER® 15G insecticide (BIOCIDE No. 1) and the antidote on the pre-planted test seeds. In this test, the herbicides were Nos. 1 (MON-12000), 10 (ALLY®) and #4 (HARMONY®) and the Antidote Nos. 1, 7, 12 and 33.
These in-furrow treatments comprised a 50-50 mix of blended granules of COUNTER with and without 5G granular antidotes at 7.4 + 7.4 mg/cm or 1.1 + 0.37 mg active ingredient (a.i.)/cm. The in-furrow initiation of the test was followed five (5) days later with POE application of the herbicides; observations were made eight (8) days later. Table 38 […]

Velvetleaf (VELE) [2] = assay: Multi-crop greenhouse test, soil-applied (Examples 65, 66; Tables 64, 65); type: in vivo, Abutilon theophrasti; parameters: inhibition: dose or concentration left out as unconfirmed; conditions: for inhibition / inhibition at 18 g/ha / inhibition at 70 g/ha / inhibition at 280 g/ha: Abutilon theophrasti; for inhibition at 18 g/ha: Herb. No. 1 0.018 Kg/Ha alone; for inhibition at 70 g/ha: Herb. No. 1 0.07 Kg/Ha alone; for inhibition at 280 g/ha: Herb. No. 1 0.28 Kg/Ha alone
Experimental: Tests according to this invention in various crops indicate widespread application of the invention. In Examples 62-66 below are described tests with a variety of herbicides contacted with COUNTER® 15G in the presence and absence of MON-7400 (Antidote No. 12); MON-13900 (No. 1); MON-4660 (No. 16) and flurazole (No. 16). Those tests were conducted according to Procedures IV or V described above and illustrated further in other foregoing examples. Plants used in all tests were, for crops (as abbreviated in parentheses); cotton (COTT); soybean (SOBE); CORN, grain sorghum (GRSO); wheat (WHEA) and RICE, and the weeds giant foxtail (GIFT) and velvetleaf (VELE). The data in the tables below represent averages of two replications.
In this test the crops and weeds were planted 1.3 cm deep in 13.7 cm X 27.7 cm pans containing Dupo silt loam soil. The test safeners were applied in acetone solution and COUNTER 15G as dry granules to soil cover layers and incorporated by shaking in a bag. Treated cover layers were placed on seeded pans which were transferred to greenhouse benches and subirrigated. Herbicide was applied POE six (6) days after PPI initiation and observations of plant injury made ten (10) days later; results are shown in Table 61. The herbicide used in this example was BEACON (No. 8).
In another test in the several crops and weeds used in this test series, the herbicidal component was MON-12000 (No. 1); the other components were the same. the procedure used in this test was the same as that described in Example 62, modified to use a light overhead irrigation (about 0.32 cm/day) during days 4-7 of the test. Table 64 […]

[3] = Antidote + Biocide No. 1 in furrow, Herbicide No. 1 0.14 Kg/Ha POE, 8 days after POE
[4] = Antidote + Biocide No. 1 in furrow, Herbicide No. 4 0.17 Kg/Ha POE, 8 days after POE
[5] = Antidote + Biocide No. 1 in furrow, Herbicide No. 5 0.07 Kg/Ha POE, 8 days after POE
[6] = Antidote + Biocide No. 1 in furrow, Herbicide No. 6 0.01 Kg/Ha POE
[7] = Antidote + Biocide No. 1 in furrow, Herbicide No. 7 0.56 Kg/Ha POE, 8 days after POE
[8] = Antidote + Biocide No. 1 in furrow, Herbicide No. 9 0.009 Kg/Ha POE
[9] = Antidote + Biocide No. 1 in furrow, Herbicide No. 10 0.002 Kg/Ha POE, 8 days after POE
[10] = Antidote + Biocide No. 1 in furrow, Herbicide No. 15 0.0044 Kg/Ha POE, 8 days after POE
[11] = Antidote + Biocide No. 1 in furrow, Herbicide No. 16 0.01 Kg/Ha POE
[12] = Antidote + Biocide No. 1 in furrow, Herbicide No. 18 0.0044 Kg/Ha POE
[13] = Antidote + Biocide No. 1 in furrow, Herbicide No. 19 0.28 Kg/Ha POE
[14] = Antidote + Biocide No. 1 in furrow, Herbicide No. 21 0.14 Kg/Ha POE
[15] = Antidote + Biocide No. 1 in furrow, Herbicide No. 23 0.0006 Kg/Ha POE
[16] = Table 64, Herb. No. 1 0.018 Kg/Ha + Biocide No. 1 8.96 Kg/Ha + Antidote 4.48 Kg/Ha
[17] = Table 64, Herb. No. 1 0.07 Kg/Ha + Biocide No. 1 8.96 Kg/Ha + Antidote 4.48 Kg/Ha
[18] = Table 64, Herb. No. 1 0.28 Kg/Ha + Biocide No. 1 8.96 Kg/Ha + Antidote 4.48 Kg/Ha
[19] = Table 65, Herb. No. 1 0.018 Kg/Ha + Biocide No. 1 8.96 Kg/Ha + Antidote 4.48 Kg/Ha
[20] = Table 65, Herb. No. 1 0.07 Kg/Ha + Biocide No. 1 8.96 Kg/Ha + Antidote 4.48 Kg/Ha
[21] = Table 65, Herb. No. 1 0.28 Kg/Ha + Biocide No. 1 8.96 Kg/Ha + Antidote 4.48 Kg/Ha

Structure (SMILES) | % Inhibition VELE (Velvetleaf (VELE) [1]; [3]) [%] | % Inhibition VELE (Velvetleaf (VELE) [1]; [4]) [%] | % Inhibition VELE (Velvetleaf (VELE) [1]; [5]) [%] | % Inhibition VELE (Velvetleaf (VELE) [1]; [6]) [%] | % Inhibition VELE (Velvetleaf (VELE) [1]; [7]) [%] | % Inhibition VELE (Velvetleaf (VELE) [1]; [8]) [%] | % Inhibition VELE (Velvetleaf (VELE) [1]; [9]) [%] | % Inhibition VELE (Velvetleaf (VELE) [1]; [10]) [%] | % Inhibition VELE (Velvetleaf (VELE) [1]; [11]) [%] | % Inhibition VELE (Velvetleaf (VELE) [1]; [12]) [%] | % Inhibition VELE (Velvetleaf (VELE) [1]; [13]) [%] | % Inhibition VELE (Velvetleaf (VELE) [1]; [14]) [%] | % Inhibition VELE (Velvetleaf (VELE) [1]; [15]) [%] | % Inhibition VELE (Velvetleaf (VELE) [2]; [16]) [%] | % Inhibition VELE (Velvetleaf (VELE) [2]; [17]) [%] | % Inhibition VELE (Velvetleaf (VELE) [2]; [18]) [%] | % Inhibition VELE (Velvetleaf (VELE) [2]; [19]) [%] | % Inhibition VELE (Velvetleaf (VELE) [2]; [20]) [%] | % Inhibition VELE (Velvetleaf (VELE) [2]; [21]) [%] | other results
CC1(C)OC(c2ccco2)CN1C(=O)C(Cl)Cl (centres unmarked) [compound 1] | 95 | 90 | 95 | 60 | 75 | 90 | 90 | 75 | 35 | 65 | 65 | 85 | 60 | 65 | 85 | 95 | 10 | 75 | 90 | % Inhibition VELE (Velvetleaf (VELE) [1]; Herbicide No. 1 0.14 Kg/Ha POE + Biocide No. 1 in furrow, no antidote, 8 days after POE): 90%; % Inhibition VELE (Velvetleaf (VELE) [1]; Herbicide No. 1 0.14 Kg/Ha POE alone, 8 days after POE): 85%
N#CCOc1ccc(Cl)c2cccnc12 [compound 33] | 90 | 90 | 90 | 65 | 65 | 85 | 90 | 80 | 40 | 65 | 60 | 90 | 70 | – | – | – | – | – | – | –
COC(=O)COC(c1ccccc1)c1ccccc1 [compound 12] | 90 | 85 | 85 | 65 | 75 | 85 | 90 | 75 | 25 | 70 | 60 | 85 | 65 | 50 | 85 | 95 | 0 | 75 | 85 | –
COC(=O)c1c(Cl)nn(C)c1S(=O)(=O)NC(=O)Nc1nc(OC)cc(OC)n1 [Herbicide No. 1, N-[(4,6-dimethoxypyrimidin-2-yl)aminocarbonyl]-3-chloro-4-methoxycarbonyl-5-sulfonamide, reference compound] | – | – | – | – | – | – | – | – | – | – | – | – | – | – | – | – | – | – | – | inhibition (Velvetleaf (VELE) [2]; Table 64, Herb. No. 1 0.018 Kg/Ha + Biocide No. 1 8.96 Kg/Ha): 75%; inhibition at 18 g/ha (Velvetleaf (VELE) [2]; Table 64): 70%; inhibition (Velvetleaf (VELE) [2]; Table 64, Herb. No. 1 0.07 Kg/Ha + Biocide No. 1 8.96 Kg/Ha): 85%; inhibition at 70 g/ha (Velvetleaf (VELE) [2]; Table 64): 90%; inhibition (Velvetleaf (VELE) [2]; Table 64, Herb. No. 1 0.28 Kg/Ha + Biocide No. 1 8.96 Kg/Ha): 100%; inhibition at 280 g/ha (Velvetleaf (VELE) [2]; Table 64): 100%; inhibition (Velvetleaf (VELE) [2]; Table 65, Herb. No. 1 0.018 Kg/Ha + Biocide No. 1 8.96 Kg/Ha): 10%; inhibition at 18 g/ha (Velvetleaf (VELE) [2]; Table 65): 15%; inhibition (Velvetleaf (VELE) [2]; Table 65, Herb. No. 1 0.07 Kg/Ha + Biocide No. 1 8.96 Kg/Ha): 80%; inhibition at 70 g/ha (Velvetleaf (VELE) [2]; Table 65): 80%; inhibition (Velvetleaf (VELE) [2]; Table 65, Herb. No. 1 0.28 Kg/Ha + Biocide No. 1 8.96 Kg/Ha): 90%; inhibition at 280 g/ha (Velvetleaf (VELE) [2]; Table 65): 90%
